Measurements published in PubChem BioAssay AID248 (DTP/NCI, 2004).
“And” between values parts separate entries of the source, which are not always exact repeats. Identical values can stand only once. Toxic doses and inconclusive results are not listed.

System: L1210 leukemia ip in BDF1 mice, survival T/C
Experiment: NCI In Vivo Anticancer Drug Screen. Data for tumor model L1210 Leukemia (intraperitoneal) in B6D2F1 (BDF1) mice
Details: endpoint: mean survival time, higher = longer survival
How it was run: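 Mice bearing the transplanted tumor received compound or vehicle. Survival of the treated group was divided by that of the vehicle-treated control group to give the ratio.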

[1] = dose: 100.0 mg/kg/injection, schedule: Q01DX009 (ip), vehicle: saline with Tween-80
[2] = dose: 100.0 mg/kg/injection, schedule: Q04DX003 (ip), vehicle: saline with Tween-80
[3] = dose: 200.0 mg/kg/injection, schedule: Q01DX009 (ip), vehicle: saline with Tween-80
[4] = dose: 200.0 mg/kg/injection, schedule: Q04DX003 (ip), vehicle: saline with Tween-80
[5] = dose: 400.0 mg/kg/injection, schedule: Q04DX003 (ip), vehicle: saline with Tween-80
[6] = dose: 100.0 mg/kg/injection, schedule: Q04DX002 (ip), vehicle: Klucel (hydroxypropylcellulose) (HPC)
[7] = dose: 200.0 mg/kg/injection, schedule: Q04DX002 (ip), vehicle: Klucel (hydroxypropylcellulose) (HPC)
[8] = dose: 400.0 mg/kg/injection, schedule: Q04DX002 (ip), vehicle: Klucel (hydroxypropylcellulose) (HPC)
[9] = dose: 100.0 mg/kg/injection, schedule: Q01DX009 (ip), vehicle: Klucel (hydroxypropylcellulose) (HPC)
[10] = dose: 200.0 mg/kg/injection, schedule: Q01DX009 (ip), vehicle: Klucel (hydroxypropylcellulose) (HPC)
[11] = dose: 100.0 mg/kg/injection, schedule: Q01DX001 (ip), vehicle: saline
[12] = dose: 200.0 mg/kg/injection, schedule: Q01DX001 (ip), vehicle: saline
[13] = dose: 400.0 mg/kg/injection, schedule: Q01DX001 (ip), vehicle: saline
[14] = dose: 100.0 mg/kg/injection, schedule: Q04DX003 (ip), vehicle: carboxymethylcellulose (CMC)
[15] = dose: 200.0 mg/kg/injection, schedule: Q04DX003 (ip), vehicle: carboxymethylcellulose (CMC)
[16] = dose: 400.0 mg/kg/injection, schedule: Q04DX003 (ip), vehicle: carboxymethylcellulose (CMC)

For `Cc1cc2c(-c3ccccc3)c(C(=O)c3ccccc3)c(C(=O)c3ccccc3)c(-c3ccccc3)c2cc1C`, the T/C (dose: 100.0 mg/kg/injection, schedule: Q01DX001 (ip), vehicle: saline with Tween-80) was 89 % of control, the T/C (dose: 200.0 mg/kg/injection, schedule: Q01DX001 (ip), vehicle: saline with Tween-80) was 89 % of control and the T/C (dose: 400.0 mg/kg/injection, schedule: Q01DX001 (ip), vehicle: saline with Tween-80) was 89 % of control.

`O=C1c2ccccc2-c2ccccc21` was tested, and the T/C [1] was 88 % of control, the T/C [2] was 102 % of control and the T/C [3] was 93 % of control. The T/C [4] was 102 % of control, the T/C (dose: 400.0 mg/kg/injection, schedule: Q01DX009 (ip), vehicle: saline with Tween-80) was 88 % of control and the T/C [5] was 105 % of control.

With `O=C(O)/C(=C\c1[nH]c(=O)[nH]c(=O)c1Br)NC(=O)c1ccccc1` the T/C [2] was 104 % of control, the T/C [4] was 103 % of control and the T/C [5] was 101 % of control.

For `COC(=O)C1ON(C(=O)c2ccccc2)C(C)C(O)C1OC=O` (configuration not stated), the T/C [6] was 95 % of control, the T/C [7] was 95 % of control and the T/C [8] was 103 % of control.

With `O=C(/C=C/c1ccccc1Cl)c1ccccc1` the T/C (dose: 50.0 mg/kg/injection, schedule: Q01DX009 (ip), vehicle: Klucel (hydroxypropylcellulose) (HPC)) was 99 % of control, the T/C [9] was 92 % of control and the T/C [10] was 96 % of control.

With `CCc1ccc2ccc3c4ccccc4ccc3[n+]2c1` the T/C (dose: 10.0 mg/kg/injection, schedule: Q01DX001 (ip), vehicle: saline) was 93 % of control, the T/C (dose: 20.0 mg/kg/injection, schedule: Q01DX001 (ip), vehicle: saline) was 90 % of control and the T/C (dose: 40.0 mg/kg/injection, schedule: Q01DX001 (ip), vehicle: saline) was 94 % of control.

For `Cc1ccc(NCCN(C)C)c2c(=O)c3ccccc3sc12`, the T/C (dose: 9.3 mg/kg/injection, schedule: Q01DX Z (ip), vehicle: saline) was 104 % of control, the T/C (dose: 14.0 mg/kg/injection, schedule: Q01DX Z (ip), vehicle: saline) was 108 % of control and the T/C (dose: 21.0 mg/kg/injection, schedule: Q01DX Z (ip), vehicle: saline) was 118 % of control. The T/C (dose: 28.0 mg/kg/injection, schedule: Q01DX Z (ip), vehicle: saline) was 117 % of control, the T/C (dose: 42.0 mg/kg/injection, schedule: Q01DX Z (ip), vehicle: saline) was 163 % of control and the T/C (dose: 50.0 mg/kg/injection, schedule: Q01DX001 (ip), vehicle: saline) was 101 % of control. For the same compound, the T/C (dose: 84.0 mg/kg/injection, schedule: Q01DX Z (ip), vehicle: saline) was 115 % of control, the T/C (dose: 89.0 mg/kg/injection, schedule: Q01DX001 (ip), vehicle: saline) was 100 % of control and the T/C (dose: 93.0 mg/kg/injection, schedule: Q01DX Z (ip), vehicle: saline) was 101 % of control. For the same compound, the T/C [11] was 109 % of control, the T/C (dose: 100.0 mg/kg/injection, schedule: Q01DX Z (ip), vehicle: saline) was 107 % of control and the T/C (dose: 125.0 mg/kg/injection, schedule: Q01DX Z (ip), vehicle: carboxymethylcellulose (CMC)) was 151 % of control. For the same compound, the T/C (dose: 133.0 mg/kg/injection, schedule: Q01DX001 (ip), vehicle: saline) was 117 % of control and the T/C [12] was 155 % of control and 212 % of control.

For `CC1(C)CC(N=Cc2ccccc2O)CC(C)(C)N1O`, the T/C [2] was 94 % of control, the T/C [4] was 97 % of control and the T/C [5] was 100 % of control.

With `CC1OC(C(Cl)(Cl)Cl)NC1=O` (configuration not stated) the T/C (dose: 100.0 mg/kg/injection, schedule: Q04DX002 (ip), vehicle: saline) was 89 % of control, the T/C (dose: 200.0 mg/kg/injection, schedule: Q04DX002 (ip), vehicle: saline) was 99 % of control and the T/C (dose: 400.0 mg/kg/injection, schedule: Q04DX002 (ip), vehicle: saline) was 89 % of control.

With `Cc1cccc[n+]1C` the T/C (dose: 50.0 mg/kg/injection, schedule: Q01DX001 (ip), vehicle: carboxymethylcellulose (CMC)) was 111 % of control, the T/C (dose: 100.0 mg/kg/injection, schedule: Q01DX001 (ip), vehicle: Klucel (hydroxypropylcellulose) (HPC)) was 95 % of control and the T/C (dose: 100.0 mg/kg/injection, schedule: Q01DX001 (ip), vehicle: carboxymethylcellulose (CMC)) was 92 % of control. For the same compound, the T/C (dose: 200.0 mg/kg/injection, schedule: Q01DX001 (ip), vehicle: Klucel (hydroxypropylcellulose) (HPC)) was 104 % of control and the T/C (dose: 200.0 mg/kg/injection, schedule: Q01DX001 (ip), vehicle: carboxymethylcellulose (CMC)) was 103 % of control.

In the case of `COC1CCC(/C(C#N)=C/C2CCC(N(C)C)CC2)CC1` (configuration not stated), the T/C (dose: 100.0 mg/kg/injection, schedule: Q04DX002 (ip), vehicle: saline with Tween-80) is reported as 95 % of control, the T/C (dose: 200.0 mg/kg/injection, schedule: Q04DX002 (ip), vehicle: saline with Tween-80) is reported as 91 % of control and the T/C (dose: 400.0 mg/kg/injection, schedule: Q04DX002 (ip), vehicle: saline with Tween-80) is reported as 98 % of control.

In the case of `C=CCCCCCCCCC(=O)OC`, the T/C [11] is reported as 100 % of control, the T/C [12] is reported as 96 % of control and the T/C [13] is reported as 100 % of control.

For `Nc1cccc(CC(=O)Nc2ccc(S(=O)(=O)F)cc2)c1`, the T/C [11] was 90 % of control, the T/C [12] was 106 % of control and the T/C [13] was 100 % of control.

With `COc1ccccc1CNCc1ccccc1` the T/C (dose: 75.0 mg/kg/injection, schedule: Q01DX001 (ip), vehicle: other) was 101 % of control.

In the case of `C=CCNC(=S)Nc1cccc(C(C)OC(=O)NC(C)(C)C)c1` (configuration not stated), the T/C [1] is reported as 106 % of control, the T/C [2] is reported as 95 % of control and the T/C [3] is reported as 107 % of control. For the same compound, the T/C [4] was 93 % of control and the T/C [5] was 94 % of control.

For `CCOC(=O)Nc1ccccn1`, the T/C [6] was 100 % of control, the T/C [7] was 103 % of control and the T/C [8] was 92 % of control.

For `Nc1ccc(N2CCNCC2)cc1`, the T/C (dose: 50.0 mg/kg/injection, schedule: Q01DX009 (ip), vehicle: saline) was 101 % of control, the T/C (dose: 100.0 mg/kg/injection, schedule: Q01DX009 (ip), vehicle: saline) was 107 % of control and the T/C (dose: 200.0 mg/kg/injection, schedule: Q01DX009 (ip), vehicle: saline) was 111 % of control.

For `CCN(CC)CCNC(=O)c1ccc(N=Cc2cc(Br)ccc2O)cc1`, the T/C [9] was 98 % of control and the T/C [10] was 96 % of control.

For `COC(=O)CCC(C)C1CCC2C3C(OC(C)=O)CC4CC(O)CCC4(C)C3CC(O)C12C` (configuration not stated), the T/C (dose: 100.0 mg/kg/injection, schedule: Q01DX009 (ip), vehicle: carboxymethylcellulose (CMC)) was 93 % of control and 107 % of control, the T/C (dose: 100.0 mg/kg/injection, schedule: Q04DX002 (ip), vehicle: carboxymethylcellulose (CMC)) was 93 % of control and 97 % of control and the T/C [14] was 104 % of control. For the same compound, the T/C (dose: 200.0 mg/kg/injection, schedule: Q01DX009 (ip), vehicle: carboxymethylcellulose (CMC)) was 91 % of control and 92 % of control, the T/C (dose: 200.0 mg/kg/injection, schedule: Q04DX002 (ip), vehicle: carboxymethylcellulose (CMC)) was 97 % of control and 98 % of control and the T/C [15] was 97 % of control. For the same compound, the T/C (dose: 400.0 mg/kg/injection, schedule: Q01DX009 (ip), vehicle: carboxymethylcellulose (CMC)) was 94 % of control and 88 % of control, the T/C (dose: 400.0 mg/kg/injection, schedule: Q04DX002 (ip), vehicle: carboxymethylcellulose (CMC)) was 97 % of control and the T/C [16] was 95 % of control.

In the case of `O=[N+]([O-])c1cc(Cl)c(Cl)cc1N1CCCC1`, the T/C (dose: 100.0 mg/kg/injection, schedule: Q04DX003 (ip), vehicle: Klucel (hydroxypropylcellulose) (HPC)) is reported as 93 % of control, the T/C (dose: 200.0 mg/kg/injection, schedule: Q04DX003 (ip), vehicle: Klucel (hydroxypropylcellulose) (HPC)) is reported as 88 % of control and the T/C (dose: 400.0 mg/kg/injection, schedule: Q04DX003 (ip), vehicle: Klucel (hydroxypropylcellulose) (HPC)) is reported as 101 % of control.

For `O=C(O)C(=O)Cc1cccc(Cl)c1[N+](=O)[O-]`, the T/C (dose: 75.0 mg/kg/injection, schedule: Q04DX003 (ip), vehicle: saline) was 96 % of control, the T/C (dose: 150.0 mg/kg/injection, schedule: Q04DX003 (ip), vehicle: saline) was 102 % of control and the T/C (dose: 300.0 mg/kg/injection, schedule: Q04DX003 (ip), vehicle: saline) was 98 % of control.

In the case of `Cc1ccc2[nH]c(=S)n(-c3ccc(Cl)cc3)c(=O)c2c1`, the T/C [14] is reported as 97 % of control, the T/C [15] is reported as 88 % of control and the T/C [16] is reported as 93 % of control.
